Reference: patent US20260021159A1, “STABLE PEPTIDE COMPOSITIONS AND METHODS OF USE THEREOF FOR TREATMENT OF MODERATE/SEVERE DRY EYE-RELATED OCULAR SYMPTOMS” (TearSolutions, Inc., priority 2022, published 2026)
Entries after “also recorded” stand apart in the source; their conditions may differ.

Columns and labels:
Type in all cases: in vivo, human
[1] = tested on: subjects with ocular surface disease associated with Primary Sjögren's Syndrome; experiment: Lissamine green conjunctival staining (LGCS, NEI scale) in Lacripep clinical study
Description: (§1) The primary objective of this study was to evaluate the safety and tolerability of 22 and 44 μM Lacripep™ ophthalmic solution versus placebo (vehicle) administered three times daily for 28 days in subjects with a history of ocular surface disease associated with Primary Sjögren's Syndrome, including subjects with mild dry eye symptoms. Additionally, many dry eye signs and symptoms were assessed.
(§2) This was a multi-center, randomized, placebo-controlled, double-masked, parallel-group study conducted at 35 sites in the United States, and approved by local institutional review boards. Written informed consent was obtained from all subjects after review of risks and benefits of participation. The study was conducted in accordance with the Health Insurance Portability and Accountability Act of 1996 and Declaration of Helsinki of 1996 and registered at ClinicalTrials.gov: NCT 03226444.
(§3) The study duration was 56 days, including a 14-day run-in period, a 28-day active treatment period, and 14-day follow-up period (wash-out) (see FIG. 2). Measurements were collected at five scheduled visits.
(§4) Randomization and Treatment: At Visit 2 (Baseline/Randomization) eligibility was confirmed. All criteria were met in the same study eye. […] Eligible subjects were randomly assigned to one of the three treatment groups: one of two Lacripep™ ophthalmic solution strengths (22 μM or 44 μM) or placebo (vehicle).
(§5) One drop of investigational product was administered three times a day (TID) to both eyes for 28 days. At Visit 3 (Week 2) and Visit 4 (Week 4) efficacy and safety evaluations were performed. Subjects who discontinued before Visit 4 underwent Visit 4 evaluations (Early Termination).
(§6) Efficacy: All efficacy assessments were performed in both eyes, and by the same person if possible. […] Lissamine green conjunctival staining (LGCS) was assessed in 6 regions on a 0 to 3 scale (total 0 to 18). All sites were trained and tested on NEI scoring methodology.
(§7) The change from Baseline in CFS to Day 14 and to post treatment follow-up (Day 42) were additional secondary measurements. Other secondary measurements included changes from baseline to Day 14 and Day 28 in the LGCS scores, TFBUT, and Schirmer tests. Secondary symptom measurements included changes from baseline to Day 14 and Day 28 in the SANDE and each of the Individual Symptom Assessments.
Post-Hoc Efficacy Analysis: Post-hoc, all primary and secondary endpoints were assessed for treatment effect controlling for baseline Eye Dryness Score (EDS) using analysis of covariance (ANCOVA). All ANCOVA models were fit using the Proc Mixed procedure in SAS. Post-hoc analysis was also performed using all observed data in the ITT set, without imputation. […] Subgroups were then evaluated according to baseline EDS.

[2] = tested on: subjects with ocular surface disease associated with Primary Sjögren's Syndrome; experiment: Corneal fluorescein staining (CFS, NEI scale) in Lacripep clinical study NCT 03226444
Description: as §1, §2, §3
Screening and Eligibility: At Visit 1 (Screening) informed consent was obtained from subjects and eligibility was determined requiring documentation of Primary Sjögren's Syndrome per the American-European Consensus Group Sjögren's Syndrome Criteria. Subjects were at least 18 years of age with a history of dry eye-related symptoms and use of eye-wetting agents within the past 120 days. Major inclusion criteria at the screening and subsequent baseline visits included: • 1. CFS total score >4 and <15 in the National Eye Institute Industry Workshop (NEI) scale (Protocol Appendix 6) • 2. Symptom Severity score of ≥40 using the Symptom Assessment in Dry Eye (SANDE) questionnaire • 3. Anesthetized Schirmer test score […] • 4. LGCS total score ≥5 using the NEI scale
as §4, §5, §6
The primary efficacy measurement was mean change from Baseline to Day 28 in CFS total score (NEI/Industry Workshop 0-15 scale, 0-3 scale in each of 5 regions) in the study eye. The key secondary efficacy measurement was mean change from Baseline to Day 28 in Eye Dryness Score (VAS from 0 to 100 mm) from Individual Symptom Assessments.
as §7, with “Assessments. […]” for “Assessments.”

[3] = tested on: subjects with ocular surface disease associated with Primary Sjögren's Syndrome; experiment: Burning/Stinging individual symptom assessment (VAS) in Lacripep clinical study
Description: as §1, §2, §3, §4
One drop of investigational product was administered three times a day (TID) to both eyes for 28 days. […]
Tear film break-up time (TBUT) was measured in seconds. The Symptom Assessment in Dry Eye (SANDE) inventory version 1 and version 2 measured patient-rated symptom severity and frequency using a visual-analogue scale. The Individual Symptom Assessments (instantaneous and Reflective) measured patient-reported symptoms on a visual-analogue scale (VAS). […]
Post-Hoc Efficacy Analysis: Post-hoc, all primary and secondary endpoints were assessed for treatment effect controlling for baseline Eye Dryness Score (EDS) using analysis of covariance (ANCOVA). […] Subgroups were then evaluated according to baseline EDS.

[4] = 22 μM TID, day 14, prespecified analysis

Ac-Lys-Gln-Phe-Ile-Glu-Asn-Gly-Ser-Glu-Phe-Ala-Gln-Lys-Leu-Leu-Lys-Lys-Phe-Ser-NH2 (Ac-KQFIENGSEFAQKLLKKFS-NH2) [Lacripep™, synthetic 19 amino acid peptide fragment of lacritin]
Improvement in change from baseline LGCS total score vs. placebo ([1]; 22 μM TID, day 14, subset baseline EDS≥60, p=0.017): 1.5 | Improvement in LGCS segment 5 vs. placebo ([1]; 22 μM TID, day 14, subset baseline EDS≥60, p=0.038): 0.4 | Improvement in LGCS segment 1 vs. placebo ([1]; 22 μM TID, day 14, subset baseline EDS≥60, p=0.049): 0.4 | Improvement in LGCS ([1]; prespecified secondary endpoint analysis): not statistically significant | Improvement in total CFS score vs placebo ([2]; 22 μM TID, day 14, baseline EDS set, p=0.03): 1.2 | Improvement from baseline in inferior region CFS score vs. placebo [2, 4]: statistically significant | Treatment effect on inferior CFS after washout ([2]; 22 μM, day 42 post-treatment follow-up, subset baseline EDS): falling off after washout | Difference in inferior region CFS score vs. placebo ([2]; 44 μM TID (higher dose group), subset baseline EDS≥60): Positive (though not statistically significant) differences; also recorded: positive but not significant effect | Primary endpoint of CFS score at day 28 ([2]; day 28, change from baseline in CFS total score vs placebo): not met | Improvement from baseline in Burning/Stinging symptom (reflective VAS rating) vs. placebo [3, 4]: statistically significant | Burning/Stinging symptom vs placebo at later time points ([3]; both dose groups (22 and 44 μM), day 28 and day 42, not statistically significant): trend better than the placebo group | Burning/Stinging symptom treatment effect ([3]; both dose groups, day 28, subset baseline EDS of ≥60): positive but not significant effect
